By Ki is commonly meant the equilibrium dissociation constant of an inhibitor or competing ligand from its target. The term inhibition denotes the drop in the measured response relative to a control, in per cent.

Consider 44 molecules from patent publication US7943628B2, “Pyrimidine derivatives” (Pfizer Limited, priority 2005, dated 2011).

The assay deals with T1, histamine H4 receptor (Homo sapiens, UniProt Q9H3N8).
T1 construct: expressed in transfected cells; host or cells: CHO cells
The assay can be described thus: H4 binding, method 1 ([3H]-histamine filtration binding on CHO cell membranes). The following applies: for Ki: H4 binding, method 1, Ki calculated from IC50 (Cheng-Prussoff); for Method 1, activity at top dose (10 μM): top dose 10 μM; for inhibition at 10 µM: 1.5 h. A digest of the protocol: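 Membranes from CHO cells expressing human H4 receptor (20-35 μg/well) incubated 90 min at room temperature with 3 nM [3H]-histamine in 50 mM Tris-HCl pH 7.4, ± competitor. Bound label separated by filtration on PEI-soaked GF/B filters and counted by scintillation; non-specific binding with 10 μM JNJ7777120.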

T1 sequence (Q9H3N8 whole entry): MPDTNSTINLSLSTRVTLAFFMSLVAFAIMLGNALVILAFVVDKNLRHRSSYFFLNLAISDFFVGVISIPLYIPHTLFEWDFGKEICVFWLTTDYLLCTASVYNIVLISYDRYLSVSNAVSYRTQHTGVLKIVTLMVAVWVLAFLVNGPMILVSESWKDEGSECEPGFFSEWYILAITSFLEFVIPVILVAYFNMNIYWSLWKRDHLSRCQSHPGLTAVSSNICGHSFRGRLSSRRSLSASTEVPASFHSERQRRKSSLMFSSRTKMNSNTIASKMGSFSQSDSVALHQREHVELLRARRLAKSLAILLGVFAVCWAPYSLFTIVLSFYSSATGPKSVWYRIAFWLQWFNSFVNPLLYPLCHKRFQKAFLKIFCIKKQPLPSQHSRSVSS

`CCNc1cc(N2CC[C@@H]3NCC[C@@H]3C2)nc(N)n1` (racemic) [Example 193, N^4-Ethyl-6-[(3aR*,7aS*)-octahydro-5H-pyrrolo[3,2-c]pyridin-5-yl]pyrimidine-2,4-diamine]: the inhibition constant Ki is 31 nM.
On to `CNC1CCCN(c2cc(NCC(C)(C)C)nc(N)n2)C1` (centres unmarked) [Example 250, N^4-(2,2-Dimethylpropyl)-6-[3-(methylamino)piperidin-1-yl]pyrimidine-2,4-diamine], for which the Ki is 353 nM.
Still for that read-out and setting: then `CC[C@@H](C)Nc1cc(N2CC[C@@H](NC)C2)nc(N)n1` [Example 152, 6-[(3R)-3-(Methylamino)pyrrolidin-1-yl]-N^4-[(1R)-1-methylpropyl]pyrimidine-2,4-diamine], with 16.9 nM.
On to `CNC1CN(c2cc(NCC3CC3)nc(NCC3CC3)n2)C1` [Example 276, N,N′-Bis(cyclopropylmethyl)-6-[3-(methylamino)azetidin-1-yl]pyrimidine-2,4-diamine], for which the “Method 1, % at 3.16 μM” value (at 3.16 μM) came out at 14% at 3.16 μM.
Turning to `CC(C)CCNc1cc(N2CCN(C)CC2)ncn1` [Example 100, N-(3-Methylbutyl)-6-(4-methylpiperazin-1-yl)pyrimidin-4-amine], the Ki is 40.2 nM.
Consider `C[C@H]1CN(c2cc(NC3CC3)ncn2)CCN1` [Example 252, N-Cyclopropyl-6-[(3S)-3-methylpiperazin-1-yl]pyrimidin-4-amine], for which the Ki is 370 nM.
With `CNC1CN(c2cc(NCc3cc(F)cc(F)c3)nc(N)n2)C1` [Example 316, N^4-(3,5-Difluorobenzyl)-6-[3-(methylamino)azetidin-1-yl]pyrimidine-2,4-diamine], the “Method 1, activity at top dose (10 μM)” value is recorded as “No activity at top”.
Turning to `CC(C)CNc1cc(N2CCN(C)CC2)ncn1` [Example 105, N-Isobutyl-6-(4-methylpiperazin-1-yl)pyrimidin-4-amine], the inhibition constant Ki was 68.8 nM.
Turning to `CC(C)(C)CNc1cc(N2CCN(C3CNC3)CC2)ncn1` [Example 303, 6-(4-Azetidin-3-ylpiperazin-1-yl)-N-(2,2-dimethylpropyl)pyrimidin-4-amine], the inhibition at 10 µM amounted to 38%.
Regarding `CC(C)CNc1cc(N2CC[C@@H](N)C2)nc(N)n1` [Example 216, 6-[(3R)-3-Aminopyrrolidin-1-yl]-N^4-isobutylpyrimidine-2,4-diamine], the Ki is 70.6 nM.
For the molecule `CN[C@@H]1CCN(c2cc(NC3CC3C)nc(N)n2)C1` (stereo partly drawn) [Example 134, 6-[(3R)-3-(Methylamino)pyrrolidin-1-yl]-N^4-(2-methylcyclopropyl)pyrimidine-2,4-diamine], the Ki was 4.15 nM.
`CN1CCN(c2cc(NC(C)(C)C)nc(N)n2)CC1` [Example 223, N^4-(tert-Butyl)-6-(4-methylpiperazin-1-yl)pyrimidine-2,4-diamine] had an inhibition at 10 µM of 13%.
Take `CC(C)(C)CNc1cc(N2CC(N3CCCC3)C2)ncn1` [Example 192, N-(2,2-Dimethylpropyl)-6-(3-pyrrolidin-1-ylazetidin-1-yl)pyrimidin-4-amine]: the Ki is 28.7 nM.
As to `CN1CCN(c2cc(NCC3CC3)ncn2)CC1` [Example 106, N-(Cyclopropylmethyl)-6-(4-methylpiperazin-1-yl)pyrimidin-4-amine], the Ki was 66.1 nM.
On to `CCNc1cc(N2CC(N)C2)nc(N)n1` [Example 170, 6-(3-Aminoazetidin-1-yl)-N^4-ethylpyrimidine-2,4-diamine], for which the Ki was 8.55 nM.
As for `CC(C)(C)CNc1cc(N2C[C@H]3CCCN[C@H]3C2)nc(N)n1` [Example 318, N^4-(2,2-Dimethylpropyl)-6-[(4aR,7aR)-octahydro-6H-pyrrolo[3,4-b]pyridin-6-yl]pyrimidine-2,4diamine], the “Method 1, activity at top dose (10 μM)” value is “No activity at top”.
Consider `CCNc1cc(N2CC[C@H](NC)C2)nc(N)n1` [Example 205, N^4-Ethyl-6-[(3S)-3-(methylamino)pyrrolidin-1-yl]pyrimidine-2,4-diamine], for which the Ki is 39.3 nM.
As for `c1nc(NCC2CC2)cc(N2CCN(C3CNC3)CC2)n1` [Example 308, 6-(4-Azetidin-3-ylpiperazin-1-yl)-N-(cyclopropylmethyl)pyrimidin-4-amine], the “Method 1, activity at top dose (10 μM)” value is listed as “No activity at top”.
As to `CC[C@H](C)Nc1cc(N2CC[C@@H](NC)C2)nc(N)n1` [Example 151, 6-[(3R)-3-(Methylamino)pyrrolidin-1-yl]-N^4-[(1S)-1-methylpropyl]pyrimidine-2,4-diamine], the Ki is 12.4 nM.
In the case of `CNc1cc(N2CCNCC2)nc(N)n1` [Example 208, N^4-Methyl-6-piperazin-1-ylpyrimidine-2,4-diamine], the Ki was 45.1 nM.
The same measure, in the same setting: then `CN[C@@H]1CCN(c2cc(NCc3ccccc3)nc(N)n2)C1` [Example 254, N^4-Benzyl-6-[(3R)-3-(methylamino)pyrrolidin-1-yl]pyrimidine-2,4-diamine], with 380 nM; and `Nc1nc(NCC2CC2)cc(N2CCC(N)CC2)n1` [Example 283, 6-(4-Aminopiperidin-1-yl)-N^4-(cyclopropylmethyl)pyrimidine-2,4-diamine], with 1700 nM.
Turning to `CCNc1cc(N2CCC(C)(N)C2)nc(N)n1` (centres unmarked) [Example 265, 6-(3-Amino-3-methylpyrrolidin-1-yl)-N^4-ethylpyrimidine-2,4-diamine], the Ki was 705 nM.
For `CCNc1cc(N2CCNCC2)nc(N)n1` [Example 214, N^4-Ethyl-6-piperazin-1-ylpyrimidine-2,4-diamine], the Ki is 54.4 nM.
Take `CC(C)CCNc1cc(N[C@H]2CCNC2)ncn1` [Example 107]: the inhibitory constant (Ki) is 271 nM.
Consider `CN[C@@H]1CCN(c2ncnc(NCC3CC3)c2C)C1` [Example 291, N-(Cyclopropylmethyl)-5-methyl-6-[(3R)-3-(methylamino)pyrrolidin-1-yl]pyrimidin-4-amine], for which the “Method 1, activity at top dose (6.3 μM)” value (top dose 6.3 μM) is “No activity at top”.
Regarding `CCN(CC)CCN(C)c1cc(NCC2CC2)ncn1` [Example 306, N′-(Cyclopropylmethyl)-N-[2-(diethylamino)ethyl]-N-methylpyrimidine-4,6-diamine], the inhibition at 10 µM stood at 18%.
For the molecule `CCCNc1cc(N2CC(NC)C2)ncn1` [Example 206, 6-[3-(Methylamino)azetidin-1-yl]-N-propylpyrimidin-4-amine], the Ki is 39.9 nM.
For `CC(C)Nc1cc(N2CCNCC2)nc(N)n1` [Example 187, N^4-Isopropyl-6-piperazin-1-ylpyrimidine-2,4-diamine], the Ki was 22.4 nM.
In the case of `CNC1CN(c2cc(NCc3ccc(F)c(F)c3)nc(N)n2)C1` [Example 233, N^4-(3,4-Difluorobenzyl)-6-[3-(methylamino)azetidin-1-yl]pyrimidine-2,4-diamine], the Ki is 30.4 nM.
As to `CNc1cc(N2CCC(C)(N)C2)nc(N)n1` (centres unmarked) [Example 320, 6-(3-Amino-3-methylpyrrolidin-1-yl)-N^4-methylpyrimidine-2,4-diamine], the “Method 1, % at 6.3 μM” value (at 6.3 μM) was determined as 46% at 6.3 μM.
Turning to `c1nc(NC[C@@H]2CCCO2)cc(N[C@H]2CCNC2)n1` [Example 290, N-[(3S)-Pyrrolidin-3-yl]-N′-[(2S)-tetrahydrofuran-2-ylmethyl]pyrimidine-4,6-diamine], testing at 10 µM gave an inhibition of 24%.
`c1nc(NC2CC2)cc(N2CCCNCC2)n1` [Example 314, N-Cyclopropyl-6-(1,4-diazepan-1-yl)pyrimidin-4-amine]: the “Method 1, activity at top dose (10 μM)” value was “No activity at top”.
For `C[C@@H]1CN(c2cc(NCC3CC3)nc(N)n2)CCN1` [Example 310, N^4-(Cyclopropylmethyl)-6-[(3R)-3-methylpiperazin-1-yl]pyrim idine-2,4-diamine], the “Method 1, activity at top dose (10 μM)” value is on record as “No activity at top”.
Regarding `CNC1(C)CN(c2cc(NCC(C)(C)C)nc(N)n2)C1` [Example 186, N^4-(2,2-Dimethylpropyl)-6-[3-methyl-3-(methylamino)azetidin-1-yl]pyrimidine-2,4-diamine], the Ki was 22.2 nM.
Same read-out and setting: then `NCCNc1cc(NCC2CC2)nc(N)n1` [Example 212, N^4-(2-Aminoethyl)-N^6-(cyclopropylmethyl)pyrimidine-2,4,6-triamine], with 50 nM; and `CN[C@@H]1CCN(c2cc(NCC3CCCC3)nc(N)n2)C1` [Example 174, N^4-(Cyclopentylmethyl)-6-[(3R)-3-(methylamino)pyrrolidin-1-yl]pyrimidine-2,4-diamine], with 10.6 nM; and `Nc1nc(NCC2CC2)cc(N2C[C@H]3CCCN[C@H]3C2)n1` [Example 165, N^4-(Cyclopropylmethyl)-6-[(4aR,7aR)-octahydro-6H-pyrrolo[3,4-b]pyridin-6-yl]pyrimidine-2,4-diamine], with 3.83 nM.
As to `CN(C)CCNc1cc(NCC(C)(C)C)nc(N)n1` [Example 144, N^4-[2-(Dimethylamino)ethyl]-N^6-(2,2-dimethylpropyl)pyrimidine-2,4,6-triamine], the Ki is 16.8 nM.
On the same count and under the same terms, then `CN1CCN(c2cc(N3CCOCC3)ncn2)CC1` [Example 293, 4-[6-(4-Methylpiperazin-1-yl)pyrimidin-4-yl]morpholine], with 3040 nM.
For `c1ccc(CCNc2cc(N[C@H]3CCNC3)ncn2)cc1` [Example 315, N-(2-Phenylethyl)-N′-[(3S)-pyrrolidin-3-yl]pyrimidine-4,6-diamine], the Ki was 5190 nM.
In the case of `CC(C)(C)CCNc1cc(N[C@H]2CCNC2)ncn1` [Example 6, N-(3,3-Dimethylbutyl)-N′-[(3S)-pyrrolidin-3-yl]pyrimidine-4,6-diamine], the Ki is 502 nM.
With `CN[C@@H]1CCN(c2cc(NCCC(F)(F)F)nc(N)n2)C1` [Example 235, 6-[(3R)-3-(Methylamino)pyrrolidin-1-yl]-N^4-(3,3,3-trifluoropropyl)pyrimidine-2,4-diamine], the Ki is 198 nM.
For the molecule `CCCCNc1cc(N2CC[C@@H](NC)C2)ncn1` [Example 147, N-Butyl-6-[(3R)-3-(methylamino)pyrrolidin-1-yl]pyrimidin-4-amine], the Ki is 17.3 nM.
